{"source": "patent US20070025991A1", "about": "“Use of antagonists of ghrelin or ghrelin receptor to treat intestinal inflammation” (priority 2003, published 2007)", "key": {"[1]": {"system": "IL-8 promoter activity in NCM460 cells expressing human GHS-R", "assay": "IL-8 promoter-luciferase assay in GHS-R-expressing NCM460 cells", "assay_type": "cell-based", "procedure": "Construction of a reporter construct containing 1521 bp (nucleotides −1481 to +40) of the promoter region of human IL-8 gene has been described previously (Warny, M. et al., J. Clin. Invest., 105:1147-1156 (2000)). IL-8 reporter constructs containing mutations in NF-κB, AP-1 or C/EBP sites have been described previously (Zhao, D. et al., J. Biol. Chem., 276:44464-44471 (2001)). […] Firefly and Renilla luciferase activities in cell extracts were measured using Dual-Luciferase Reporter Assay System (Promega). The relative luciferase activity were then calculated by normalizing IL-8 promoter-driven Firefly luciferase activity to control Renilla luciferase activity. […]\nNCM460 cells were transiently transfected with pMMP-HA-GHSR or a control plasmid pMMP-LacZ along with IL-8 promoter-luciferase construct plus an internal control construct. The transfected cells were stimulated with ghrelin for 6 hours and the IL-8 promoter activity was measured.\nTo examine whether ghrelin-induced IL-8 gene expression involves the NF-κB pathway, NCM-GHS-R cells were transiently transfected with IL-8-luciferase construct along with an internal control plasmid. […] IL-8 promoter activity was measured. […]"}, "[2]": {"target": "human GHS-R with HA epitope (pMMP-HA-GHSR), transiently expressed in NCM460 cells (human) (UniProt Q92847)", "sequence (Q92847 whole entry)": "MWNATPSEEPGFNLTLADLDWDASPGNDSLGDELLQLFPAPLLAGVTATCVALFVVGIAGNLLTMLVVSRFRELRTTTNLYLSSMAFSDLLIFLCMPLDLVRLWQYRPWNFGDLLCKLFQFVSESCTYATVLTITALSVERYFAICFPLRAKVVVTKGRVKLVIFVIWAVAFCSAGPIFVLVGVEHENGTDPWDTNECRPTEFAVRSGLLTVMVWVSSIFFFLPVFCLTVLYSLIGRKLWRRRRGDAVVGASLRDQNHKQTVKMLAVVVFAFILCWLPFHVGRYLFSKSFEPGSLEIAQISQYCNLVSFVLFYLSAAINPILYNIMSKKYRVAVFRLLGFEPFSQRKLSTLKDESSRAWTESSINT", "assay": "cell-based or functional assay"}, "[3]": {"system": "ghrelin-induced MAP kinase phosphorylation in IEC-GHS-R cells (rat GHS-R)", "assay": "MAP kinase phosphorylation in IEC-GHS-R cells (western blot, phospho-MAPK antibody)", "assay_type": "cell-based", "procedure": "To examine whether an anti-ghrelin IgG or a GHS-R antagonist [D-lys-3]-GHRP-6 blocks ghrelin-mediated responses in experimental colitis, experiments were first performed to test the efficiency of these reagents using in vitro assays. Since ghrelin was previously shown to activate MAP kinase in human HepG2 cells, the effect of the anti-ghrelin antibody or [D-lys-3]-GHRP-6 on ghrelin-induced MAP kinase activation was determined. For these experiments, rat full-length GHS-R cDNA was cloned from rat brain RNA and then subcloned into the retroviral expression vector pMMP. The retroviruses expressing rat GHS-R were used to infect normal rat intestinal epithelial cell line IEC-6 cells (from ATCC). The resulting cell line was named IEC-GHS-R cells.\nThe response of the IEC-GHS-R to rat ghrelin was determined using this MAP kinase assay. Briefly, serum starved IEC-GHS-R cells were treated with ghrelin (10^−7 M) for various times. […]\nTo determine the effect of an anti-ghrelin IgG or a GHS-R antagonist [D-lys-3]-GHRP on ghrelin-induced MAPK phosphorylation, IEC-GHS-R cells were pretreated with the anti-ghrelin IgG (2 and 5 μg/ml) or with normal rabbit IgG or [D-lys-3]-GHRP-6 (1-20 nM) for 10 minutes and then treated with rat ghrelin for 5 minutes. MAP kinase phosphorylation was then determined."}, "GHS-R": {"target": "T1, GHS-R (Rattus norvegicus, UniProt O08725)", "T1 construct": "host or cells: CHO cells stably expressing rat GHS-R (inferred, same citation)", "T1 sequence (O08725 whole entry)": "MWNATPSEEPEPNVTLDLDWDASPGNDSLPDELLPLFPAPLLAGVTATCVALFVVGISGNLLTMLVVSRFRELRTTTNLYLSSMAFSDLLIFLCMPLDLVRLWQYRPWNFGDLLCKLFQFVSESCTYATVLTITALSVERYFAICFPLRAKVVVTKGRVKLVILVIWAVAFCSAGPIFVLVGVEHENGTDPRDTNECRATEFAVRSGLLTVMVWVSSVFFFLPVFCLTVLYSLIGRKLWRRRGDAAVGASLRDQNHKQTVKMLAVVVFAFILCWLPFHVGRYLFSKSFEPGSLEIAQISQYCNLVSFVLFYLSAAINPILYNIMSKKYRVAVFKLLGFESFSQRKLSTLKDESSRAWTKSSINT", "conditions": "cited from earlier work"}, "[4]": {"system": "toxin A-induced intestinal fluid secretion", "set-up": "species or system mice", "conditions": "mouse, in vivo, ip"}, "food intake": {"system": "food intake", "conditions": "food intake induced by centrally injected ghrelin / GHS-R-induced; cited from earlier work"}, "[5]": {"system": "NCM460, HT29 and Caco-2 cells", "assay": "IL-8 gene expression in colonic epithelial cell lines with endogenous ghrelin receptor", "assay_type": "cell-based, human", "conditions": "NCM460, HT29, Caco-2 with very low endogenous ghrelin receptor"}, "[6]": {"system": "IL-8 secretion in NCM-GHS-R cells", "assay": "IL-8 secretion (ELISA) in NCM-GHS-R cells", "assay_type": "cell-based, human", "conditions": "serum starved NCM-GHS-R cells, ghrelin 10^−7 M, various times"}}, "note": "Non-standard residues stand in square brackets, D forms with d. No end group written: not given here."}
{"compound": "O=C(/C=C/c1ccc(O)c(O)c1)OCCc1ccccc1", "note": "[CAPE]", "values": [{"measurement": "inhibition of ghrelin-induced IL-8 promoter activity", "setting": "[1]; NCM-GHS-R cells, 10 μg/ml CAPE 30 minutes pretreatment, ghrelin 10^−7 M 4 hours", "result": "inhibited ghrelin-induced IL-8 promoter activity"}]}
{"compound": "ghrelin (species not stated, used on human NCM460-derived cells) (peptide)", "values": [{"measurement": "IL-8 promoter activity (luciferase reporter)", "setting": "[2]", "result": 8, "unit": "fold"}]}
{"compound": "His-D-Trp-D-Lys-Trp-D-Phe-Lys-NH2 (H[dW][dK]W[dF]K-NH2; N-terminus assumed; SMILES NCCCC[C@H](NC(=O)[C@@H](Cc1ccccc1)NC(=O)[C@H](Cc1c[nH]c2ccccc12)NC(=O)[C@@H](CCCCN)NC(=O)[C@@H](Cc1c[nH]c2ccccc12)NC(=O)[C@@H](N)Cc1c[nH]cn1)C(N)=O) [[D-lys-3]-GHRP-6, commercially available hexapeptide ghrelin receptor (GHS-R) antagonist]", "values": [{"measurement": "inhibition of ghrelin-induced MAPK phosphorylation", "setting": "[3]; pretreated 10 minutes (anti-ghrelin IgG 2 and 5 μg/ml; [D-lys-3]-GHRP-6 1-20 nM), then rat ghrelin 5 minutes", "result": "inhibited ghrelin-induced MAPK phosphorylation in a dose-dependent manner"}, {"measurement": "block of GHS-R-induced calcium response", "setting": "GHS-R", "result": "efficiently block"}, {"measurement": "basal fluid secretion in buffer-exposed loops", "setting": "[4]", "result": "no significant effect"}, {"measurement": "inhibition of toxin A-induced fluid secretion", "setting": "[4]", "result": "approximately 50%"}, {"measurement": "block of food intake", "setting": "food intake", "result": "efficiently block"}]}
{"compound": "ghrelin", "values": [{"measurement": "IL-8 gene expression on stimulation", "setting": "[5]", "result": "does not mediate IL-8 gene expression"}, {"measurement": "MAP kinase phosphorylation", "setting": "[3]; serum starved IEC-GHS-R cells, ghrelin 10^−7 M, various times", "result": "induces MAP kinase phosphorylation in a time-dependent manner"}, {"measurement": "IL-8 secretion in conditioned media", "setting": "[6]", "result": "significantly stimulates IL-8 secretion"}, {"measurement": "stimulation of IL-8 promoter activity", "setting": "[1]; NCM460 cells transiently transfected with pMMP-HA-GHSR, ghrelin for 6 hours", "result": "approximately 8 fold"}]}
